Measured values published in patent US20220000878A1, “METHODS OF TREATMENT OF MALIGNANCIES” (Servier Pharmaceuticals, LLC, priority 2015, published 2022).
In brackets after ≈: the same amount, converted by molar mass. Entries after “also recorded” stand apart in the source; their conditions may differ. Each block holds one compound with its values, some of them ahead of it.

Tests used:
2-HG = experiment: Phase 1/2 study AG221-C-001: pharmacodynamic response (2-HG plasma levels); type: in vivo, human
Text: (§1) This is a Phase 1/2, multicenter, open-label, 3-part (Phase 1 dose escalation, Phase 1 Part 1 Expansion, and Phase 2), safety, PK/PD, and clinical activity evaluation of orally administered COMPOUND 1 in subjects with advanced hematologic malignancies that harbor an IDH2 mutation. The study includes a dose escalation phase to determine MTD/MAD and/or RP2D, an expansion phase (Part 1) to further evaluate the safety, tolerability, and clinical activity of COMPOUND 1, and a Phase 2 to assess the clinical efficacy of COMPOUND 1 at the RP2D and to further evaluate safety in subjects with refractory and relapsed AML carrying an IDH2 mutation.
Subjects in the dose escalation phase and Part 1 Expansion also will undergo PK/PD assessments over a 10-hour period on C1D15, C2D1, and C4D1. […] These subjects will have urine collected for PK/PD evaluation at screening; prior to dosing on C1D15, C2D1 and Day 1 of all cycles thereafter; and at the End of Treatment visit. Available bone marrow biopsy samples also will be assessed for 2-HG and α-KG levels.
The starting dose of COMPOUND 1 recommended for evaluation is 100 mg QD. This is based on the safety, PK, pharmacodynamics and clinical activity of COMPOUND 1 observed to date in AG221-C-001. […] Thus a dose of 100 mg should adequately achieve inhibition of 2-HG in subjects with either R140Q or R172K mutation.
Serial blood sampling for determination of concentration-time profiles of COMPOUND 1 and its metabolite (6-(6-(trifluoromethyl)pyridin-2-yl)-N2-(2-(trifluoromethyl)pyridin-4-yl)-1,3,5-triazine-2,4-diamine). Urine sampling for determination of concentrations of COMPOUND 1 and its metabolite (6-(6-(trifluoromethyl)pyridin-2-yl)-N2-(2-(trifluoromethyl)pyridin-4-yl)-1,3,5-triazine-2,4-diamine) (dose escalation and Part 1 expansion subjects only). Blood and bone marrow sampling for determination of 2-HG and α-KG levels.

[1] = tested on: advanced hematologic malignancies with an IDH2 mutation; experiment: Phase 1/2 study AG221-C-001: clinical activity and safety; type: in vivo, human
Text: as §1
Subjects in the dose escalation phase and Part 1 Expansion will have the extent of their disease assessed, including bone marrow biopsies and/or aspirates and peripheral blood, at screening, on C1D15, C2D1, and C3D1, every 28 days (peripheral blood only) or every 56 days (bone marrow biopsies and/or aspirates and peripheral blood) thereafter while on study drug treatment, independent of dose delays and/or dose interruptions, and/or at any time when progression of disease is suspected. Response to treatment and treatment decisions in all subjects will be determined by the Investigators based on modified International Working Group (IWG) response criteria or other appropriate response criteria for the malignancy under study. […]

[2] = tested on: advanced hematologic malignancies with an IDH2 mutation; experiment: NRAS mutation status and COMPOUND 1 response (next generation sequencing of screening samples, Fisher's exact test); type: in vivo, human
Procedure: A subset of the clinical samples from the trial described in Example 1 were analyzed at screening. Sample types included bone marrow, peripheral blood and mononuclear cells isolated from bone marrow or peripheral blood. DNAs were extracted from these samples and sequenced at Foundation Medicine (see http://foundationone.com/learn.php) using next generation sequencing technique.
A total of 60 genes were identified to carry at least one mutation in the analyzed set (including IDH2 gene). Fisher's exact test was conducted to evaluate the association of somatic mutations with clinical response (responders include CR, CRp, CRi and PR, indicated as +, while none-responders include SD and PD, indicated as—in Table 11). The P-values were adjusted by multiple-test correction.
Mutation status positive (+) means any known mutation(s) in NRAS, and negative (−) means no mutation in NRAS was present.
Positive response status (+) includes CR, mCR and PR and negative response status (−) includes stable disease (SD) and progressive disease (PD).

[3] = tested on: advanced hematologic malignancies with an IDH1 mutation; experiment: NRAS mutation status and COMPOUND 2 response (subset of clinical samples of the Phase 1 trial); type: in vivo, human; details: cancer with mutant allele of IDH1
Text: This study is a Phase 1, multicenter, open-label, dose-escalation, safety, PK/PD, and clinical activity evaluation of orally administered COMPOUND 2 in subjects with advanced hematologic malignancies that harbor an IDH1 mutation. The study includes a dose escalation phase to determine MTD and/or RP2D followed by expansion arms to further evaluate the safety, tolerability, and clinical activity of COMPOUND 2 in select populations.
A analysis of a subset of the clinical samples from the trial for COMPOUND 2 was conducted. FIG. 14 provides a visual of NRAS mutations according to response categories for COMPOUND 2. FIG. 14 profiles bone marrow at screening visit for patients only where genes were mutated in ≥2. In FIG. 14, genes (y-axis) are shown in decreasing order of frequency, with the exception of IDH2, while patients (x-axis) are grouped by response then by similarity in alterations; only patients from dose escalation phase with an evaluable response included.
A subset of the clinical samples from the trial for COMPOUND 2 described in Example 3 was analyzed for mutations in the samples. FIG. 14 provides a visual of commutations, including NRAS mutations according to response categories for COMPOUND 2. FIG. 14 profiles bone marrow at screening visit for patients only where genes were mutated in ≥2. […]

[4] = solubility in fasted state simulated intestinal fluid (FASSIF); type: physicochemical; details: pH 6.1, fassif, thermodynamic from solid, pH of 6.1 at 4 hours
Procedure: In comparison, amorphous spray-dried dispersions have a solubility of about 0.05 mg/mL to about 0.50 mg/mL in FASSIF at 3 hours.

Compound: CC(C)(O)CNc1nc(Nc2ccnc(C(F)(F)F)c2)nc(-c2cccc(C(F)(F)F)n2)n1 [COMPOUND 1, 2-methyl-1-[(4-[6-(trifluoromethyl)pyridin-2-yl]-6-{[2-(trifluoromethyl)pyridin-4-yl]amino}-1,3,5-triazin-2-yl)amino]propan-2-ol]
reduction in 2-HG plasma levels (2-HG; by Day 1 of Cycle 2): sustained reduction | inhibition of 2-HG (2-HG; most subjects with R140Q mutation, all doses, plasma): up to 98% | dose dependence of exposure and inhibition of 2-HG (2-HG; subjects with R172K mutation): Increasing dose is associated with higher exposure and inhibition of 2-HG | safety profile, including ≥Grade 3 ([1]; 100 mg): consistent with that of lower doses | overall response rate ([1]; 44 subjects treated at 100 mg QD, preliminary efficacy data): 36.4% | association of NRAS mutation status with response ([2]; cancer with mutant allele of IDH2): associated with responses; also recorded: significantly associated | number of patients, response status − , NRAS mutation + ([2]; non-responders (SD, PD), any known NRAS mutation): 21 | number of patients, response status − , NRAS mutation − ([2]; non-responders (SD, PD), no NRAS mutation): 40 | number of patients, response status + , NRAS mutation + ([2]; responders, any known NRAS mutation, N = 118 analyzed): 2 | number of patients, response status + , NRAS mutation − ([2]; responders, no NRAS mutation, N = 118 analyzed): 55

Compound: N#Cc1ccnc(N2C(=O)CC[C@H]2C(=O)N(c2cncc(F)c2)[C@H](C(=O)NC2CC(F)(F)C2)c2ccccc2Cl)c1 [COMPOUND 2, (S)—N—((S)-1-(2-chlorophenyl)-2-((3,3-difluorocyclobutyl)amino)-2-oxoethyl)-1-(4-cyanopyridin-2-yl)-N-(5-fluoropyridin-3-yl)-5-oxopyrrolidine-2-carboxamide]
association of NRAS mutation status with response [3]: associated with responses

solubility at 4 h [4]: ~18 µg/mL (≈ 30.9 µM)
Compound: N#Cc1ccnc(N2C(=O)CC[C@H]2C(=O)N(c2cncc(F)c2)[C@H](C(=O)NC2CC(F)(F)C2)c2ccccc2Cl)c1 [Form 2]
